According to patent US20240300917A1, “MICROBIOCIDAL QUINOLINE/QUINOXALINE ISOQUINOLINE DERIVATIVES” (SYNGENTA CROP PROTECTION AG, priority 2021, published 2024):

| Compound | melting point [°C] |
| --- | --- |
| C[C@@H]1N=C(c2cnc3c(F)cccc3c2)c2cccc(Cl)c2[C@@H]1C (racemic) [E.15, rac-(3S,4S)-5-chloro-1-(8-fluoro-3-quinolyl)-3,4-dimethyl-3,4-dihydroisoquinoline] | 100 to 102 |
| C[C@@H]1N=C(c2cnc3c(F)cccc3c2)c2cccc(Cl)c2[C@H]1C (racemic) [E.13, rac-(3S,4R)-5-chloro-1-(8-fluoro-3-quinolyl)-3,4-dimethyl-3,4-dihydroisoquinoline] | 112 to 114 |
| Cc1ccc2c(c1Cl)[C@@H](C)[C@H](C)N=C2c1cnc2c(F)cccc2c1 (racemic) [E.09, rac-(3S,4R)-5-chloro-1-(8-fluoro-3-quinolyl)-3,4,6-trimethyl-3,4-dihydroisoquinoline] | 82 to 84 |
| Cc1ccc2c(c1C#N)[C@H](C)[C@H](C)N=C2c1cnc2c(F)c(F)ccc2c1 (racemic) [E.06, rac-(3S,4S)-1-(7,8-difluoro-3-quinolyl)-3,4,6-trimethyl-3,4-dihydroisoquinoline-5-carbonitrile] | 140 to 142 |
| C[C@@H]1N=C(c2cnc3c(F)cccc3c2)c2cccc(Br)c2[C@H]1C (racemic) [E.12, rac-(3S,4R)-5-bromo-1-(8-fluoro-3-quinolyl)-3,4-dimethyl-3,4-dihydroisoquinoline] | 132 to 134 |
| Cc1ccc2c(c1Cl)[C@H](C)[C@H](C)N=C2c1cnc2c(F)cccc2c1 (racemic) [E.14, rac-(3S,4S)-5-chloro-1-(8-fluoro-3-quinolyl)-3,4,6-trimethyl-3,4-dihydroisoquinoline] | 84 to 86 |
| Cc1ccc2c(c1C#N)[C@H](C)[C@H](C)N=C2c1cnc2c(F)cccc2c1 (racemic) | 164 to 166 |
